# Test results from patent EP4741383A1, “COMPOUND AND USE THEREOF AS ANTI-CANCER DRUG” (Tyligand Bioscience (Shanghai) Limited, priority 2023, dated 2025).
# Experiments:
# [1] = system: 4T1; experiment: CellTiter-Glo cell proliferation inhibition, 4T1; type: cell-based; settings: 4T1 (mouse breast cancer cell line), 72 hours; read-out: Example IC50 (µM) 4T1
# From the text: (§1) This experiment used the CellTiter-Glo® Luminescent Cell Viability Assay kit from Promega to evaluate the inhibitory activity of the disclosed compounds on the proliferation of the following cell lines: 4T1 (mouse breast cancer cell line), A20 (mouse B-cell lymphoma cell line), A2780 (human ovarian cancer cell line), AsPC-1 (pancreatic cancer cell line), B16F10 (mouse melanoma cell line), BT549 (human breast cancer cell line), CT26 (mouse colon cancer cell line), EMT6 (mouse breast cancer cell line), HCT116 (colorectal cancer cell line), Jurket (acute leukemia cell line), KP-4 (pancreatic cancer cell line), LL/2 (mouse lung cancer cell line), MCF7 (breast cancer cell line), […] NCI-H358 (lung cancer cell line), NCI-H727 (gastric cancer cell line), NCI-1944 (lung cancer cell line), Pan 04.03 (pancreatic cancer cell line), SK-BR-3 (breast cancer cell line), THP-1 (leukemia cell line), TOV21G (ovarian cancer cell line), U87MG (glioblastoma cell line), and UM-UC-a (bladder cancer cell line). […]
# (§2) Cells were cultured according to the instructions provided by the cell supplier (Nanjing Kebai Biotechnology Co., Ltd.). […] Suspension or adherent cells were collected, and cell viability was determined using the trypan blue exclusion method, ensuring that cell viability was above 90%. […]
# [2] = system: AsPC-1; experiment: CellTiter-Glo cell proliferation inhibition, AsPC-1; type: cell-based; settings: Homo sapiens, ASPC1; AsPC-1 (pancreatic cancer cell line), 72 hours; read-out: Example IC50 (µM) AsPC-1
# From the text: as §1, §2
# [3] = system: BT549; experiment: CellTiter-Glo cell proliferation inhibition, BT549; type: cell-based; settings: BT-549; BT549 (human breast cancer cell line), 72 hours; read-out: Example IC50 (µM) BT549
# From the text: as §1, §2
# [4] = system: CT26; experiment: CellTiter-Glo cell proliferation inhibition, CT26; type: cell-based; settings: CT26 (mouse colon cancer cell line), 72 hours; read-out: Example IC50 (µM) CT26
# From the text: as §1, §2
# [5] = system: EMT6; experiment: CellTiter-Glo cell proliferation inhibition, EMT6; type: cell-based; settings: EMT6 (mouse breast cancer cell line), 72 hours; read-out: Example IC50 (µM) EMT6
# From the text: as §1, §2
# [6] = system: Jurket; experiment: CellTiter-Glo cell proliferation inhibition, Jurket; type: cell-based; settings: Jurket (acute leukemia cell line), 72 hours; read-out: Example IC50 (µM) Jurket
# From the text: as §1, §2
# [7] = system: KP-4; experiment: CellTiter-Glo cell proliferation inhibition, KP-4; type: cell-based; settings: Homo sapiens; KP-4 (pancreatic cancer cell line), 72 hours; read-out: Example IC50 (µM) KP-4
# From the text: as §1, §2
# [8] = system: LL/2; experiment: CellTiter-Glo cell proliferation inhibition, LL/2; type: cell-based; settings: LL/2 (mouse lung cancer cell line), 72 hours; read-out: Example IC50 (µM) LL/2
# From the text: as §1, §2
# [9] = system: MCF7; experiment: CellTiter-Glo cell proliferation inhibition, MCF7; type: cell-based; settings: Homo sapiens; MCF7 (breast cancer cell line), 72 hours; read-out: Example IC50 (µM) MCF7
# From the text: as §1, §2
# [10] = system: NCI-H727; experiment: CellTiter-Glo cell proliferation inhibition, NCI-H727; type: cell-based; settings: Homo sapiens; […]; read-out: Example IC50 (µM) NCI-H727
# From the text: as §1, §2
# [11] = system: TOV21G; experiment: CellTiter-Glo cell proliferation inhibition, TOV21G; type: cell-based; settings: Homo sapiens; TOV21G (ovarian cancer cell line), 72 hours; read-out: Example IC50 (µM) TOV21G
# From the text: as §1, §2
# [12] = system: U87MG; experiment: CellTiter-Glo cell proliferation inhibition, U87MG; type: cell-based; settings: Homo sapiens, U-87 MG; U87MG (glioblastoma cell line), 72 hours; read-out: Example IC50 (µM) U87MG
# From the text: as §1, §2
# [13] = biological target: SHP2 (Homo sapiens, UniProt Q06124); settings: J. Med. Chem. 2014, 57, 6594-6609; read-out: enzyme activity IC50; cited from earlier work
# SHP2, sequence (Q06124 whole entry): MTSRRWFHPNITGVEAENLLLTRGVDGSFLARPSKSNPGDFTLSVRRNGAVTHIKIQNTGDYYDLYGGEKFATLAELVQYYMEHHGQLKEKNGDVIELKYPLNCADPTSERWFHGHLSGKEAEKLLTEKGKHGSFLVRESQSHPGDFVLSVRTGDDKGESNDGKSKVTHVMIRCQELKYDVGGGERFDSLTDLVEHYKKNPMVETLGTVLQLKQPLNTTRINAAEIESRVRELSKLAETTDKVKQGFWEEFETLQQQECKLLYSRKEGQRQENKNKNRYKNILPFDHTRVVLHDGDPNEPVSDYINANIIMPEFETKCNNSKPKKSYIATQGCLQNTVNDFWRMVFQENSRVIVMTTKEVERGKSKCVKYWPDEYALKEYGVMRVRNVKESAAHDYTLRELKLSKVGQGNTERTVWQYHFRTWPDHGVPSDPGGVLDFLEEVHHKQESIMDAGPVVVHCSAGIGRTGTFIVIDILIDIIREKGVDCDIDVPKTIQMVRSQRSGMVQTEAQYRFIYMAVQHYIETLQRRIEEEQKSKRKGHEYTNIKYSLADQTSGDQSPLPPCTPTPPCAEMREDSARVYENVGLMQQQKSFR
# [14] = J. Med. Chem. 2014, 57, 6594-6609; read-out: cellular activity IC50; cited from earlier work
# [15] = J. Med. Chem. 2014, 57, 6594-6609; cited from earlier work
SMILES,IC50 [1] [µM],IC50 [2] [µM],IC50 [3] [µM],IC50 [4] [µM],IC50 [5] [µM],IC50 [6] [µM],IC50 [7] [µM],IC50 [8] [µM],IC50 [9] [µM],IC50 [10] [µM],IC50 [11] [µM],IC50 [12] [µM],IC50 [13] [nM],IC50 [14] [nM],oral bioavailability [15] [%]
O=C(Nc1ccc(-c2csc(CO)c2)cc1)C(=O)Nc1ccc(-c2cc3cc(F)c(-c4nnn[nH]4)cc3n2C2CCC2)cc1 [Example 1],0.125,0.121,0.121,0.123,0.131,0.165,0.228,0.207,0.083,0.225,0.112,0.276,,,
O=C(Nc1ccc(-c2cc3cc(F)c(-c4nnn[nH]4)cc3n2C2CCC2)cc1)C(=O)Nc1ccc(N2CCC3(CCC(O)C3)CC2)cc1 (stereo not drawn) [Example 100],0.14,,0.047,0.134,,,,,0.05,,0.106,0.075,,,
"Cn1c(-c2cccc(NC(=O)C(=O)Nc3ccc(-c4ccsc4)cc3)c2)c(I)c2cc(C(=O)O)c(O)cc21 [Example 11a-1, reference compound]",,,,,,,,,,,,,~200,≥ 1000,0.07
